Measurements taken from patent US8394963B2, “Process for the preparation of esomeprazole magnesium dihydrate” (Cipla Limited, priority 2007, dated 2013).

Assay: Solubility checked using 0.1 g of the sample at 25-30° C.
Type: physicochemical
Conditions: for Solubility (volume of solvent): 0.1 g of the sample at 25-30° C.
Description: Polymorphs of a compound differ in physical properties such as crystal structure, dissolution and particle size.

Row | Compound | Solubility (volume of solvent) (Acetone) [mL] | Solubility (volume of solvent) (Ethyl acetate) [mL] | Solubility (volume of solvent) (Isopropyl acetate) [mL] | Solubility (volume of solvent) (Toluene) [mL] | Solubility, comparison of the polymorphic forms (Form II compared with Form I of thio intermediate (compound III))
1 | COc1ccc2[nH]c(SCc3ncc(C)c(OC)c3C)nc2c1 [Form I, 5-methoxy-2-[[(4-methoxy-3,5-dimethyl-2-pyridinyl)-methyl]thio]-1H-benzimidazole, reference compound] | 2.0 | 4.6 | 10.0 | 8.4 | 
2 | COc1ccc2[nH]c(SCc3ncc(C)c(OC)c3C)nc2c1 [Form II, 5-methoxy-2-[[(4-methoxy-3,5-dimethyl-2-pyridinyl)-methyl]thio]-1H-benzimidazole] | 4.6 | 12.0 | 13.0 | 15.0 | less soluble than Form I
